Common to all, as to assay: DTP human tumour cell line panel, 48 h
Assay [1] has as its system CAKI-1 renal.
In assay [2] the test system is HOP-62 NSCLC.
Assay [3] deals with HOP-92 NSCLC.
The test system of assay [4] is NCI-H226 lung.
Assay [5] deals with NCI-H23 lung.
The subject of assay [6] is NCI/ADR-RES ovarian.
The subject of assay [7] is OVCAR-8 ovarian.
In assay [8] the test system is SF-295 CNS.
The test system of assay [9] is SK-MEL-2 melanoma.
In assay [10] the test system is UACC-257 melanoma.

Where “and” joins values, the source holds several entries; their conditions need not be identical. Identical values can stand only once.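 Test compounds were applied to cells in 96-well plates for 48 hours at 5 doses. GI50 = concentration required for 50% inhibition of growth. At the TGI there is no net growth.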 A value given as a limit tells only on which side of the number the result lay.

By TGI is commonly meant the concentration giving total growth inhibition. For `CC(C)C[C@H](NC(=O)[C@@H](O)[C@H](N)Cc1ccccc1)C(=O)O`, the TGI in assay [1], in assay [2], in assay [3], in [4], in [5] and in [6] was greater than 100 µM in each case. Moreover, the TGI in assay [7], in assay [8], in assay [9] and in [10] was greater than 100 µM in each case.

Regarding `CN1CC(C(=O)NC2(C)OC3(O)C4CCCN4C(=O)C(Cc4ccccc4)N3C2=O)C=C2c3cccc4[nH]cc(c34)CC21` (centres undefined), the TGI in [1] was 92 µM; in assay [2] it was 63.2 µM; in [3], 38.6 µM; in [4], 95.5 µM; in [5], 46.9 µM; in assay [6], 95.1 µM. The TGI was determined as 53.7 µM in assay [7], 57.1 µM in assay [8], 35.1 µM in assay [9] and 29.8 µM in assay [10].

Broadly, the GI50 is the concentration that inhibits growth by half. As for `COc1cc(/C=C\c2cccnc2Nc2ccccc2)cc(OC)c1OC`, the GI50 is 4.01 µM in assay [1]; 12.1 µM in [2]; 0.947 µM in assay [3]; 10.8 µM in assay [4]; 10.2 µM in assay [5]; 4.44 µM in assay [6]. In addition, the GI50 in assay [7] was 6.7 µM; in assay [8], 4.92 µM; in assay [9], 8 µM; in assay [10], 8.52 µM. The TGI in assay [1] is 61.1 µM; in assay [2], greater than 100 µM; in [3], 9.17 µM; in [4], 33.2 µM; in assay [5], greater than 100 µM; in assay [6], 63.2 µM. In addition, the TGI in assay [7] was greater than 100 µM; in assay [8], 35.9 µM; in assay [9], 28.8 µM; in assay [10], 65.7 µM.

Consider `CN1C(=O)C23CC4=CC=CC(O)C4N2C(=O)C1(CO)SS3` (centres undefined), for which the TGI is 0.759 µM in assay [1]; 0.322 µM in assay [2]; 0.41 µM in [3]; 0.152 µM in assay [4]; 0.348 µM in [5]; 0.0661 µM in assay [6]. The TGI in assay [7] was 0.154 µM; in [8] it was 0.389 µM; in assay [9], 0.617 µM; in assay [10] it was 0.936 µM.

For the compound `OCCCCC#Cc1ccccc1C#Cc1cnccn1`, the GI50 in assay [1] was 26.4 µM; in assay [2], 41 µM; in assay [3], 19.5 µM; in [4] it was 40 µM; in assay [5] it was 40.8 µM; in assay [6], 25.1 µM. In addition, the GI50 in assay [7] is 33 µM; in assay [8] it was 28.1 µM; in assay [9], 70.7 µM; in assay [10], 26 µM. The TGI in assay [1] was greater than 100 µM; in assay [2] it was greater than 100 µM; in [3], 88.4 µM; in assay [4], greater than 100 µM; in [5], greater than 100 µM; in assay [6], 92.2 µM. The TGI in [7] is greater than 100 µM; in assay [8] it was 91.6 µM; in [9], greater than 100 µM; in assay [10] it was 62 µM.

Regarding `COc1cc(C2c3cc4c(cc3[C@@H](Nc3cccc(O)c3)C3COC(=O)[C@H]23)OCO4)cc(OC)c1O` (some centres undefined), the GI50 was 0.242 µM and 0.69 µM in [1]; 0.459 µM in assay [2]; 0.458 µM in assay [3]; 0.423 µM in assay [4]; 0.445 µM in [5]; 0.769 µM in [7]. Moreover, the GI50 is 0.585 µM in assay [8] and 0.925 µM in assay [10]. The TGI in assay [1] is 4.59 µM; in assay [2], 4.24 µM; in assay [3] it was 0.951 µM and 9.4 µM; in assay [4], 0.902 µM and 4.04 µM; in assay [5] it was 5.52 µM; in assay [6], 21.5 µM. Besides, the TGI in assay [7] was 11.4 µM; in assay [8] it was 8.07 µM; in assay [9], 15 µM; in assay [10], 16.9 µM.

With `Cc1nc(C(N)=S)sc1C(=O)CC(=O)C(=O)Nc1cccc(Cl)c1C`, the TGI in assay [1], in assay [2], in [3], in assay [4], in assay [5] and in [6] was greater than 100 µM each time. For the same compound, the TGI in assay [7], in assay [8], in assay [9] and in assay [10] was greater than 100 µM throughout.

Regarding `CC(=O)N[C@@H]1CCC[C@H](C(=O)Nc2cc(-c3cnn4c3CC(C)(C)C4)c(Cl)cn2)C1`, the GI50 in assay [1] was less than 0.01 µM; in assay [2], less than 0.0113 µM; in [3], less than 0.01 µM; in assay [4] it was less than 0.01 µM; in assay [5] it was less than 0.0116 µM; in assay [6], 0.199 µM. Moreover, the GI50 in [7] is less than 0.012 µM; in assay [8] it was less than 0.0125 µM; in assay [9], 0.0121 µM; in [10] it was 0.0227 µM. The TGI in [1] is greater than 100 µM; in assay [2], greater than 100 µM; in [3], 0.0389 µM; in [4], 38.7 µM; in assay [5] it was 0.181 µM; in assay [6], greater than 100 µM. The TGI in assay [7] was greater than 100 µM; in [8] it was greater than 100 µM; in assay [9], 0.041 µM; in assay [10], 12 µM.

Regarding `COc1ccc(N=C2NN=C(c3c[nH]c4ccccc34)CS2)cc1OC`, the GI50 in assay [1] is 8.05 µM; in [2] it was 12.7 µM; in [3], 5.81 µM; in assay [4], 15.9 µM; in assay [5], 13.5 µM; in [6], 3.15 µM. Besides, the GI50 in assay [7] was 22.7 µM; in assay [8] it was 4.29 µM; in assay [9], greater than 100 µM; in assay [10] it was 11.1 µM. The TGI in [1] was greater than 79.1 µM; in assay [2] it was greater than 84.1 µM; in [3], greater than 58.1 µM; in [4] it was greater than 100 µM; in assay [5], greater than 93.2 µM; in assay [6] it was greater than 28 µM. Also, the TGI is greater than 89.9 µM in [7], greater than 100 µM in assay [8], greater than 100 µM in assay [9] and greater than 56.6 µM in assay [10].

Regarding `CN(C)c1ccc(Sc2ccc3nc(N)nc(N)c3c2)cc1`, the GI50 in [1] is 2.03 µM; in assay [2], 0.884 µM; in [3], 1.32 µM; in assay [4], 4.21 µM; in assay [5], 0.665 µM; in [6] it was 0.743 µM. Besides, the GI50 in assay [7] is 0.589 µM; in assay [8] it was 0.537 µM; in [9], 3.84 µM; in assay [10], 1.09 µM. Also, the TGI in assay [1] worked out at 16.8 µM; in assay [2], 15.6 µM; in [3], 5.83 µM; in assay [4], 18.6 µM; in [5], 18 µM; in assay [6], 14.9 µM. Besides, the TGI in [7] was 9.88 µM; in assay [8] it was 14.1 µM; in [9], 16.1 µM; in [10], 4.91 µM.

For `O=[N+]([O-])O.[NH-]C1CCCCC1[NH-].[NH-]C1CCCCC1[NH-].[NH-]C1CCCCC1[NH-].[OH-].[OH-].[OH-].[Pt+4].[Pt+4].[Pt+4]` (centres undefined), the GI50 was 0.222 µM in assay [1]; 2.23 µM in assay [2]; 8.21 µM in [3]; 1.37 µM in [4]; 0.359 µM in assay [5]; 1.15 µM in assay [6]. In addition, the GI50 in assay [7] is 0.382 µM; in assay [8] it was 0.971 µM; in assay [9], 2.05 µM; in [10], 1.27 µM. Besides, the TGI in [1] is 9.33 µM; in assay [2], greater than 57.8 µM; in assay [3] it was greater than 61.2 µM; in [4], 27.5 µM; in assay [5] it was 4.7 µM; in assay [6], greater than 59.3 µM. The TGI is greater than 74.1 µM in [7], greater than 66.8 µM in assay [8], 30.5 µM in assay [9] and 20.4 µM in assay [10].

`CC(C)(C)NCCC(O)c1cc(C(F)(F)F)nc2c(C(F)(F)F)cccc12` (centres undefined): the total growth inhibition concentration (TGI) turned out to be 9.97 µM in assay [1]; 14.5 µM in assay [2]; 26.2 µM in assay [3]; 33.4 µM in assay [4]; 9.74 µM in assay [5]; 15.2 µM in [6]. Also, the TGI turned out to be 17.8 µM in assay [7], 22.6 µM in assay [8], 24.6 µM in [9] and 26.4 µM in [10].

On to `N#CC1(C#N)C2C=CC(C3CCC=C32)C1(C#N)C#N` (centres undefined), for which the TGI in assay [1], in assay [2], in [3], in [4], in assay [5] and in [6] was greater than 10 µM in each case. In addition, the TGI in assay [7], in assay [8], in [9] and in assay [10] was greater than 10 µM each time.

Take `COC(=O)Nc1nc2ccc(Sc3ccc(NC(=O)Nc4cc(C(F)(F)F)ccc4F)cc3)cc2[nH]1`: the GI50 in assay [1] was 3.86 µM; in assay [2], 3.73 µM; in assay [3] it was 2.53 µM; in assay [4] it was 3.81 µM; in assay [5], 3.84 µM; in [6], 2.74 µM. The GI50 in [7] was 4.23 µM; in assay [8] it was 1.96 µM; in [9] it was 3.15 µM; in assay [10], 4.63 µM. For the same compound, the TGI in [1] stood at 18.8 µM; in [2] it was 9.56 µM; in assay [3], 10.3 µM; in assay [4], 20.2 µM; in assay [5], 11.9 µM; in assay [6] it was 11.5 µM. Also, the TGI was determined as 11.6 µM in [7], 7.52 µM in assay [8], 10.6 µM in assay [9] and 25 µM in [10].

`CCC1(N2C(=O)c3c(F)c(F)c(F)c(F)c3C2=O)C(=O)NC(=O)N(c2ccccc2)C1=O` (centres undefined): the GI50 in assay [1] was 1.95 µM; in [2], 4.93 µM; in assay [3] it was 2.01 µM; in assay [4], 10.9 µM; in assay [5], 1.99 µM; in assay [6], 7.69 µM. For the same compound, the GI50 was 3.47 µM in [7], 2.57 µM in [8], 3.84 µM in assay [9] and 5.06 µM in assay [10]. Besides, the TGI in assay [1] was determined as 4 µM; in assay [2], 20.8 µM; in [3], 4.17 µM; in assay [4] it was 24.2 µM; in assay [5], 4.02 µM; in [6], 27.1 µM. The TGI in assay [7] was 11.4 µM; in assay [8] it was 7.55 µM; in assay [9], greater than 100 µM; in assay [10], 17.1 µM.

Regarding `O=c1[nH]c(-c2ccccn2)nc2sc3c(c12)CCCCCC3`, the GI50 in [1] is 3.29 µM; in assay [2] it was 6.24 µM; in assay [3], 3.9 µM; in [4], greater than 100 µM; in assay [5] it was 11 µM; in assay [6] it was 0.961 µM. In addition, the GI50 in [7] is 4.33 µM; in assay [9], greater than 100 µM; in assay [10], greater than 100 µM. The TGI in assay [1], in [2], in assay [3], in [4], in [5] and in assay [6] was greater than 100 µM throughout. Also, the TGI in assay [7], in [9] and in [10] was greater than 100 µM each time.

Regarding `Nc1ncnc2c1ncn2Cc1ccc(C23CC4CC(CC(C4)C2)C3)c(O)c1`, the GI50 is 8.14 µM in assay [1]; 9.06 µM in [2]; 16.4 µM in [3]; greater than 100 µM in assay [4]; greater than 100 µM in assay [6]; 17.5 µM in assay [7]. In addition, the GI50 in [8] is 18.3 µM; in [9], greater than 100 µM; in assay [10] it was 3.39 µM. In addition, the TGI is 37.5 µM in assay [1]; 34.6 µM in [2]; 37.5 µM in assay [3]; greater than 100 µM in assay [4]; greater than 100 µM in assay [6]; greater than 100 µM in assay [7]. Further, the values for the TGI in assay [8], in assay [9] and in assay [10] were greater than 100 µM, greater than 100 µM and 61.2 µM, respectively.

Source of the values: PubChem BioAssay (NCI).
